Where two headings read alike, the source gives them in different places. Marks after values point to notes of the source that are not given here.
How the values were obtained:
cAMP [1] = experiment: cAMP content in rabbit blood platelets; assay type: in vivo; conditions: per mg protein; Aminophylline 0.6 mg/kg, DSP 1.0 mg/kg
Experimental: • 5. Effects on cAMP content in rabbit blood platelets. cAMP content is tested by radioimmunoassay. Protein content is measured by the Hartree Method.

cAMP [2] = experiment: cAMP content in rat blood plasma; assay type: in vivo; conditions: Aminophylline 30 mg/kg, DSP 50 mg/kg
Experimental: • 6. Effects on cAMP content in rat blood plasma. Blood cAMP content was tested by radioimmunoassay.

serum lipoprotein = experiment: High-fats rabbits: lipoprotein in blood serum; assay type: in vivo; conditions: DSP 4 g/kg/day, Simvastatin 1 mg/kg/day
Experimental: (1) Normal control group (8 rabbits) normal feeding; (2) High-fats group: High-fats feeding. All were fed for 4 weeks. Weight and lipoprotein in the blood were measured. […] High-fats control group, 2. High-dosage of DSP group (4 g dosage/kg/day), 3. […] All are given distilled water except those with special prescriptions and ends after 12 weeks testing.

aorta AS = experiment: High-fats rabbits: aortic lesion and lipoprotein content in aorta; assay type: in vivo; conditions: 8 weeks, DSP 4 g/kg/Day, Simvastatin 1 mg/kg/Day
Experimental: (§1) 1.1 Experimental Groups. (1) Normal control group (8 rabbits) normal feeding; (2) High-fats group: High-fats feeding. All were fed for 4 weeks. Weight and lipoprotein in the blood were measured. The high-fats group was divided into 4 sub-groups (12 rabbits in each sub-group). 1. High-fats control group, 2. High-dosage of DSP group (4 g dosage/kg/day), 3. Low-dosage DSP group (2 g dosage/kg/day), and 4. […] All are given distilled water except those with special prescriptions and ends after 12 weeks testing.
1.2 Experimental Methods and Standards. (1) Examination of Aortic Lesion. Drugs were given to the animals for 8 weeks, and then the animals were killed. The aortas were removed and the unnecessary membranes and fats discarded. The aortas were cut open along the mid line. One-fifth of the aorta was removed for lipid examination. […] The percentage of the lesion part was calculated, and a grading was given. […] The average thickness of the interior membrane spot plates was measured by microscopic parameter. […] The number of blood vessels with spot plates in the coronary artery and the lesion percentage (lesion percentage=the number of blood vessels with lesion/the total number of blood vessels in each transect X100%) were observed, calculated and graded according to the blocking of the blood vessels with spot plates. The average points were calculated by accumulation.

liver TG = experiment: High-fats rabbits: liver TG and liver coefficient; assay type: in vivo; conditions: DSP 4 g/kg, Simvastatin 1 mg/kg
Experimental: as §1

SOD, MDA = experiment: High-fats rabbits: SOD activity and MDA content in blood serum and liver; assay type: in vivo; conditions: 8 weeks, DSP 4 g raw medicine/kg/d, Simvastatin 1 mg/kg/d
Experimental: Method. The experimental groups were divided into: (1) Normal control group. Normal feeding; (2) High-fats feeding group: high-fats feeding.
All were fed for 4 weeks. weight and lipoprotein content in the blood were measured. […] Medicine was given to the rabbits through the stomach, according to prescription. The same volume of distilled water was given to the normal control group and high-fats feeding group. Testing ended after 12 weeks.

blood stasis = experiment: Blood flow (Hb, Lb, P, air flow), DSP vs aspirin; assay type: in vivo, human; parameters: unit not given here
Source text: Hemorrhage at the atherosclerotic lesions induces platelet activation, coronary thrombosis and blood stasis resulting in impaired blood flow. Thus to improve blood flow, chronic administration of the platelet-activation inhibitor aspirin is recommended for patients with angina. The efficacy of DSP and aspirin improving blood flow was compared by evaluating [Hb, Lb, P and air flow]. DSP improves blood flow as efficiently as aspirin. […].

thrombosis = experiment: Experimental thrombosis in rats (Umetsu method); assay type: in vivo; conditions: experimental thrombo-formation
Source text: • 3. Effects on experimental thrombosis in rats. The Umetsu method is used to carry out the experiment.

arterial IMT = experiment: Hyperlipidemia, DSP vs aspirin: arterial IMT; assay type: in vivo, human
Experimental: (§2) 1.1 Sample. 53 patients were divided into 2 groups, at random: 25 patients in Treatment group (DSP group), and 28 patients in Control group (aspirin group).
(§3) The medication lasted for 6 months. 50 mg enteric aspirin was given to the Control group, 1 time/day orally.
(§4) 1.3 Standard. a) Measurement of IMT (Arterial tunica intima-tunica media). The horizontal and vertical transactions of the whole-length aorta, carotis communis, exterior artery, and subclavial artery were checked 1, 2, 3, and 6 months after treatment. The thickest part of the IMT was measured and recorded. b) Blood flow included whole blood high-viscosity (hHb), whole blood low-viscosity (hLb), plasma viscosity (hP), Aggregation Index of Red blood cells (AIR) etc. c) Measurement of blood lipoprotein included Total blood Cholesterol (TC) and Triglycerides (TG). D) Statistical treatment by matching t statistic testing.

blood viscosity = experiment: Hyperlipidemia, DSP vs aspirin: blood flow; assay type: in vivo, human
Experimental: as §2, §3, §4

cardiac arrhythmia = experiment: Cardiac arrhythmia caused by exogenous free radicals, Langendorff rat heart; parameters: species or system Wistar rat; conditions: 1 mg/L verapamil; 50 mg/L DSP; free radicals alone 100%
Experimental: Langendorff perfusion device was used to pour ferrous sulfate (0.25 mmol/L)/citrate (1.0 mmol/L) into the Wistar rat's artificial heart. The model of free radicals causing heart rhythm irregularity was replicated to observe the effects of DSP.
(1) Blank group (Normal control). Reperfused with perfusion solution for 45 mins continuously. The change in electrocardiographic pattern was observed.
(2) SP group. DSP was added in 50 mg/L of perfusion solution and perfused for 45 mins continuously. The change in electrocardiographic pattern was observed.
(3) Free-radical-damaging group (Free radicals). After pre-perfusing the artificial heart for 15 mins, it was reperfused with perfusion solution containing ferrous sulfate (0.25 mmol/L)/citrate (1.0 mmol/L) for 30 mins continuously. The change in electrocardiographic pattern was observed.
(4) DSP-protected group (DSP+free radicals): DSP was added into 50 mg/L of perfusion solution and pre-perfused for 15 mins. Ferrous sulfate (0.25 mmol/L/citrate (1.0 mmol/L) was added to the perfusion solution and then infuse for 30 mins continuously. The change in electrocardiographic pattern was observed.
(5) Verapamil-protected group (verapamil+free radicals). […] of verapamil was added to the perfusion solution and preperfused for 15 mins. […]

Source text for insulin: (§5) Method. The 80 patients were divided into 2 groups: the Control group, with normal treatment, and the DSP group, with 10 DSP tablets, 3 times/day. Testing lasted 4 weeks.
Source text for plasma ET: as §5

Cn1c(=O)c2[nH]cnc2n(C)c1=O [Aminophylline]
cAMP content in rabbit platelets (cAMP [1]): 15.4 ± 3.9 pmol/mg
blood plasma cAMP content (cAMP [2]; 30 min after treatment): 20.7 ± 3.2 Pmol/ml plasma
blood plasma cAMP content (cAMP [2]; 60 min after treatment): 21.1 ± 3.8 Pmol/ml plasma

CCOC(=O)C1=C(COCCN)NC(C)=C(C(=O)OC)C1c1ccccc1Cl (centres unmarked) [Amlodipine]
Plasma ET (plasma ET; after treatment (4 weeks)): 42.6 ± 4.78 ng/L
Plasma ET (plasma ET; before treatment): 57.2 ± 7.31 ng/L
Blood glucose (insulin; 60 min, after treatment): 9.76 ± 0.52 mmol
Blood insulin (insulin; 60 min, after treatment): 121.65 ± 1.89 mU/L
Blood glucose (insulin; 60 min, before treatment): 9.86 ± 0.65 mmol
Blood insulin (insulin; 60 min, before treatment): 122.01 ± 1.91 mU/L
Blood glucose (insulin; 120 min, after treatment): 8.01 ± 0.76 mmol
Blood insulin (insulin; 120 min, after treatment): 92.56 ± 1.66 mU/L
Blood glucose (insulin; 120 min, before treatment): 7.69 ± 0.81 mmol
Blood insulin (insulin; 120 min, before treatment): 91.62 ± 1.96 mU/L
Blood glucose (insulin; Empty, after treatment): 5.27 ± 0.59 mmol
Blood insulin (insulin; Empty, after treatment): 25.31 ± 1.73 mU/L
Blood glucose (insulin; Empty, before treatment): 5.19 ± 0.56 mmol
Blood insulin (insulin; Empty, before treatment): 25.34 ± 1.74 mU/L

CCC(C)(C)C(=O)O[C@H]1C[C@@H](C)C=C2C=C[C@H](C)[C@H](CC[C@@H]3C[C@@H](O)CC(=O)O3)[C@H]21 [Simvastatin]
LDC-C, blood serum (serum lipoprotein; 2 weeks after dosage): 19.54 ± 5.71 mmol/L
TC, blood serum (serum lipoprotein; 2 weeks after dosage): 27.06 ± 4.46 mmol/L
TC/HDL-C, blood serum (serum lipoprotein; 2 weeks after dosage): 32.29 ± 7.39
TG, blood serum (serum lipoprotein; 2 weeks after dosage): 1.85 ± 0.55 mmol/L
VLDC-C, blood serum (serum lipoprotein; 2 weeks after dosage): 6.66 ± 1.65 mmol/L
LDC-C, blood serum (serum lipoprotein; 4 weeks after dosage): 18.22 ± 3.37 mmol/L
TC, blood serum (serum lipoprotein; 4 weeks after dosage): 26.1 ± 3.03 mmol/L
TC/HDL-C, blood serum (serum lipoprotein; 4 weeks after dosage): 19.6 ± 4.38
TG, blood serum (serum lipoprotein; 4 weeks after dosage): 1.80 ± 0.31 mmol/L
VLDC-C, blood serum (serum lipoprotein; 4 weeks after dosage): 6.54 ± 0.74 mmol/L
LDC-C, blood serum (serum lipoprotein; 8 weeks after dosage): 17.78 ± 5.69 mmol/L
TC, blood serum (serum lipoprotein; 8 weeks after dosage): 26.3 ± 4.40 mmol/L
TC/HDL-C, blood serum (serum lipoprotein; 8 weeks after dosage): 22.3 ± 6.54
TG, blood serum (serum lipoprotein; 8 weeks after dosage): 2.70 ± 0.77 mmol/L
VLDC-C, blood serum (serum lipoprotein; 8 weeks after dosage): 7.30 ± 2.05 mmol/L
LDC-C, blood serum (serum lipoprotein; A/fter dosage): 19.69 ± 8.33 mmol/L
TC, blood serum (serum lipoprotein; A/fter dosage): 26.92 ± 7.72 mmol/L
TC/HDL-C, blood serum (serum lipoprotein; A/fter dosage): 31.68 ± 10.14
TG, blood serum (serum lipoprotein; A/fter dosage): 2.04 ± 1.00 mmol/L
VLDC-C, blood serum (serum lipoprotein; A/fter dosage): 6.35 ± 1.42 mmol/L
LDC-C, blood serum (serum lipoprotein; B/f testing): 0.87 ± 0.21 mmol/L
TC, blood serum (serum lipoprotein; B/f testing): 2.27 ± 0.18 mmol/L
TC/HDL-C, blood serum (serum lipoprotein; B/f testing): 2.72 ± 0.85
TG, blood serum (serum lipoprotein; B/f testing): 0.72 ± 0.15 mmol/L
VLDC-C, blood serum (serum lipoprotein; B/f testing): 0.51 ± 0.27 mmol/L
TC content in aorta (aorta AS): 4.93 ± 2.62
Liver Coefficient (liver TG): 5.16 ± 0.60 g/100 g weight
MDA, blood serum (SOD, MDA): 5.63 ± 1.30 nmol/mL
SOD, Liver (SOD, MDA): 11.62 ± 0.38*** 10^3 u/g tissue weight
SOD, blood serum (SOD, MDA): 816.7 ± 77.2 u/ml

CC(=O)Oc1ccccc1C(=O)O [aspirin]
Air flow (blood stasis; Post-): 1.40 ± 0.10
Hb (blood stasis; Post-): 4.28 ± 1.07
LB (blood stasis; Post-): 8.21 ± 0.3
P (blood stasis; Post-): 1.67 ± 0.7
Air flow (blood stasis; Pre-): 1.82 ± 0.17
LB (blood stasis; Pre-): 10.38 ± 1.96
P (blood stasis; Pre-): 1.89 ± 0.12
Hb (blood stasis; Pre-, 25 patients DSP, 28 aspirin): 6.12 ± 1.56
Average aggregation percentage (thrombosis; Aspirin 30, DSP 50): 10.6 ± 2.1
Inhibition % (thrombosis; Aspirin 30, DSP 50 (head: g/kg)): 49.2%
IMT (arterial IMT; after treatment (6 months)): 2.1 ± 0.7 mm
IMT (arterial IMT; before treatment): 2.0 ± 0.8 mm
AIR (blood viscosity; after treatment (6 months)): 1.40 ± 0.10
η Hb (blood viscosity; after treatment (6 months)): 4.28 ± 1.07 mpa · s
η Lb (blood viscosity; after treatment (6 months)): 8.21 ± 1.03 mpa · s
η P (blood viscosity; after treatment (6 months)): 1.67 ± 0.07 mpa · s
AIR (blood viscosity; before treatment): 1.82 ± 0.17
η Hb (blood viscosity; before treatment): 6.12 ± 1.56 mpa · s
η Lb (blood viscosity; before treatment): 10.38 ± 1.96 mpa · s
η P (blood viscosity; before treatment): 1.89 ± 0.12 mpa · s

COc1ccc(CCN(C)CCCC(C#N)(c2ccc(OC)c(OC)c2)C(C)C)cc1OC (centres unmarked) [verapamil]
cardiac arrhythmia (irregularity) percentage (cardiac arrhythmia): 71.4%

Reference: patent US8486464B2, “Herbal composition for angina pectoris, method to prepare same and uses thereof” (Tasly Pharmaceutical Group Co. Ltd., priority 2000, dated 2013)
